Experimental data published in patent publication US20260356804A1, “SODIUM CHANNEL BLOCKING COMPOUNDS, DERIVATIVES THEREOF, AND METHODS OF THEIR USE” (LATIGO BIOTHERAPEUTICS, INC., priority 2022, published 2026).
Like-named read-outs stand apart in the source and are kept apart here. Each block holds one compound with its values, some of them ahead of it.

Biological target: T1, human Nav1.8/b3 (Homo sapiens, UniProt Q9Y5Y9)
T1 construct: expressed in transfected cells; host or cells: CHO
Test: Compound Profiling Human NaV1.8/β3 Cell Line—SyncroPatch384PE Assay (automated patch clamp, stably transfected CHO cells)
Assay type: cell-based
Details: Nav1.8/b3 CHO cells

[1] = P1 (IC50, resting state block), P1 measurement, resting state block, holding potential −120 mV, first set of compounds
[2] = P2 (IC50, inactivated state block), P2 measurement, inactivated state block, inactivation step −35 mV 10 sec, first set of compounds
[3] = P1 (IC50, resting state block), P1 measurement, resting state block, holding potential −120 mV, fourth set of compounds
[4] = P2 (IC50, inactivated state block), P2 measurement, inactivated state block, inactivation step −35 mV 10 sec, fourth set of compounds
[5] = P1 (IC50, resting state block), P1 measurement, resting state block, holding potential −120 mV, third set of compounds
[6] = P2 (IC50, inactivated state block), P2 measurement, inactivated state block, inactivation step −35 mV 10 sec, third set of compounds
[7] = P1 (IC50, resting state block), P1 measurement, resting state block, holding potential −120 mV, second set of compounds
[8] = P2 (IC50, inactivated state block), P2 measurement, inactivated state block, inactivation step −35 mV 10 sec, second set of compounds

T1 sequence (Q9Y5Y9 whole entry): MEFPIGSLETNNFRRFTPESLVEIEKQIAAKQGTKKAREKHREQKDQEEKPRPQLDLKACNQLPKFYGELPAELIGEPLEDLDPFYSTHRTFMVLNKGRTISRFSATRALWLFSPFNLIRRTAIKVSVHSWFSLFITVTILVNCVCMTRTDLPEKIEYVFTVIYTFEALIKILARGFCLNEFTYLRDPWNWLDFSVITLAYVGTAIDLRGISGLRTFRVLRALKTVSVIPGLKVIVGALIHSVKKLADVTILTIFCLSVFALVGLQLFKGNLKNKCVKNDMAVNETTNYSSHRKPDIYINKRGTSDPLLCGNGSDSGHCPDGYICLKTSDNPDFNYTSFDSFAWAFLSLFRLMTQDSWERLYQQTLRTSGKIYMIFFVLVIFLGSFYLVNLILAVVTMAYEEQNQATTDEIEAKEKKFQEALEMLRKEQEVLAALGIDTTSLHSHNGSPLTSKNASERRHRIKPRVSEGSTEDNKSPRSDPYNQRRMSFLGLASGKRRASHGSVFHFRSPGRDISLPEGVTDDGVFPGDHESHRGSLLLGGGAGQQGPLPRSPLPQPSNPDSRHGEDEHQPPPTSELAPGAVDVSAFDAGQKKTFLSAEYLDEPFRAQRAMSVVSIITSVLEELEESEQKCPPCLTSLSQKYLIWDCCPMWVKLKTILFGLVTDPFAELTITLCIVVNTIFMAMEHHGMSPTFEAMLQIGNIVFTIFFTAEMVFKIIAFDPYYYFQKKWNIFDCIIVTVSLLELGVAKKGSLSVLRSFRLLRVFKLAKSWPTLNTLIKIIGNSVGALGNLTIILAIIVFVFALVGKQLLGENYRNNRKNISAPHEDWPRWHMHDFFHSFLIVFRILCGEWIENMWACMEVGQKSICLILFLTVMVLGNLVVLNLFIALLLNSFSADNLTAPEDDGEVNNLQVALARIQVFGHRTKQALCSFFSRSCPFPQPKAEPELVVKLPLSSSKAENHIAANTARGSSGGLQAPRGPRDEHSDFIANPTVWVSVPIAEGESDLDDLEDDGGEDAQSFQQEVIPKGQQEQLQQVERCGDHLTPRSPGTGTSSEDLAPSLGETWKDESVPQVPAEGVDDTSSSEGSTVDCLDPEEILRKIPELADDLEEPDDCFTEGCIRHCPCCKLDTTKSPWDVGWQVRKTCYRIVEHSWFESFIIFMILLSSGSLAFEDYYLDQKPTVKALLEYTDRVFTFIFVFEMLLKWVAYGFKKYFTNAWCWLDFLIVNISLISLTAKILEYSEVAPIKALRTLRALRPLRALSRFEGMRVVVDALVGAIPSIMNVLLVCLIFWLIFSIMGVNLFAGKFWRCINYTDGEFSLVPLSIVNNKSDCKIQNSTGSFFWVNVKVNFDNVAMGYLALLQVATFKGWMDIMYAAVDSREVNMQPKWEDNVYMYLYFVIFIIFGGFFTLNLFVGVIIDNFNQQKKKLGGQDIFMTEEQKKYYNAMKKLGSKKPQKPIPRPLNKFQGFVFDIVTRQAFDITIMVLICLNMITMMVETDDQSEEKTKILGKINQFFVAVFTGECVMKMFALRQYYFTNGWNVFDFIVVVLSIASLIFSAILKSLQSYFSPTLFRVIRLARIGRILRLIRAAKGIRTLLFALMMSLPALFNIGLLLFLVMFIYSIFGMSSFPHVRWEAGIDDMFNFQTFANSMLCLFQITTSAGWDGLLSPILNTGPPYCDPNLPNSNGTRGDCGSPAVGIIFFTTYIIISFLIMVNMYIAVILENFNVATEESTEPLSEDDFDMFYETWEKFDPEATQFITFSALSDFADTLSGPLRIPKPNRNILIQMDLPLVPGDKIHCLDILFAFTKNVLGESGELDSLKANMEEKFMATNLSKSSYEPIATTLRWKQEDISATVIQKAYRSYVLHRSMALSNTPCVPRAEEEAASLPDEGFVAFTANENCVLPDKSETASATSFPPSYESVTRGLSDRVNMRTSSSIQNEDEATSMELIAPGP
T1 sequence (Q9NY72 23-215 partner): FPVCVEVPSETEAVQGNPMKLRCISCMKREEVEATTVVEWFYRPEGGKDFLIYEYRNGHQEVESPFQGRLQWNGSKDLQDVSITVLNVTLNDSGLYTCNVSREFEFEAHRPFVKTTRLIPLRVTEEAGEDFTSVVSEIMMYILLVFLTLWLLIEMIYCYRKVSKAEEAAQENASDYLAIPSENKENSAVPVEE

- IC50 [1]: < 5 nM
- IC50 [2]: < 5 nM
Structure (SMILES): C[S@@](=N)(=O)c1cccc(NC(=O)c2c(Oc3ccc(OC(F)(F)F)cc3)cc(C(F)(F)F)c(Cl)c2F)c1 [Example 50A]

- IC50 [3]: < 5 nM
- IC50 [4]: < 5 nM
Structure (SMILES): Cc1nc(F)ccc1Oc1ncc(C(F)(F)F)c(C)c1C(=O)Nc1cccc([S@@](C)(=O)=NC(=O)[C@H]2CCCO2)c1 [Example 14D, 2-((6-fluoro-2-methylpyridin-3-yl)oxy)-4-methyl-N-(3-((R)—S-methyl-N—((R)-tetrahydrofuran-2-carbonyl)sulfonimidoyl)phenyl)-5-(trifluoromethyl)nicotinamide]

- IC50 [5]: 5 to 50 nM
- IC50 [6]: 5 to 50 nM
Structure (SMILES): Cc1nc(F)ccc1Oc1ncc(-c2ccc(C(F)F)cc2)c(C)c1C(=O)Nc1cccc([S@](C)(=N)=O)c1 [Example 2C, (R)-5-(4-(difluoromethyl)phenyl)-2-((6-fluoro-2-methylpyridin-3-yl)oxy)-4-methyl-N-(3-(S-methylsulfonimidoyl)phenyl)nicotinamide]

- IC50 [3]: < 5 nM
- IC50 [4]: < 5 nM
Structure (SMILES): Cc1nc(F)ccc1Oc1ncc(C(F)(F)F)c(C)c1C(=O)Nc1cccc([S@@](C)(=O)=NC(=O)C2CNC2)c1 [Example 4D, (R)—N-(3-(N-(azetidine-3-carbonyl)-S-methylsulfonimidoyl)phenyl)-2-((6-fluoro-2-methylpyridin-3-yl)oxy)-4-methyl-5-(trifluoromethyl)nicotinamide]

- IC50 [5]: < 5 nM
- IC50 [6]: < 5 nM
Structure (SMILES): Cc1nc(F)ccc1Oc1nc(C2CC2)c(C(F)(F)F)c(C)c1C(=O)Nc1ccnc([S@@](C)(=N)=O)c1 [Example 105C]

- IC50 [1]: < 5 nM
- IC50 [2]: < 5 nM
Structure (SMILES): Cc1nc(F)ccc1Oc1cc(C(F)(F)F)c(Cl)cc1C(=O)Nc1ccc(F)c(S(C)(=O)=O)c1 [Example 54A]

- IC50 [7]: < 5 nM
- IC50 [8]: < 5 nM
Structure (SMILES): Cc1nc(F)ccc1Oc1cc(C(F)(F)F)c(Cl)cc1C(=O)Nc1cccc([S@@](C)(=O)=NC(=O)CN)c1 [Example 4B, (R)-5-chloro-2-((6-fluoro-2-methylpyridin-3-yl)oxy)-N-(3-(N-glycyl-S-methylsulfonimidoyl)phenyl)-4-(trifluoromethyl)benzamide]

- IC50 [1]: < 5 nM
- IC50 [2]: < 5 nM
Structure (SMILES): Cc1nc(F)ccc1Oc1cc(C2CC2)c(C(F)(F)F)c(C)c1C(=O)Nc1ccnc([S@](C)(=N)=O)c1 [Example 39A]

- IC50 [5]: 5 to 50 nM
- IC50 [6]: 5 to 50 nM
Structure (SMILES): Cc1nc(F)ccc1Oc1ncc(C(F)(F)F)c(C)c1C(=O)Nc1ccnc([S@@](C)(=N)=O)c1 (single isomer, unassigned) [Example 10C]

- IC50 [5]: 50 to 100 nM
- IC50 [6]: 50 to 100 nM
Structure (SMILES): Cc1ccc(Oc2ncc(C(F)(F)F)c(C)c2C(=O)Nc2cccc([S@@](C)(=N)=O)c2)c(F)n1 [Example 121C]

- IC50 [5]: < 5 nM
- IC50 [6]: < 5 nM
Structure (SMILES): Cc1nc(F)ccc1Oc1nnc(C(F)(F)F)c(C)c1C(=O)Nc1cccc(S(N)(=O)=O)c1 [Example 13C, 3-((6-fluoro-2-methylpyridin-3-yl)oxy)-5-methyl-N-(3-sulfamoylphenyl)-6-(trifluoromethyl)pyridazine-4-carboxamide]

- IC50 [1]: < 5 nM
- IC50 [2]: < 5 nM
Structure (SMILES): Cc1nc(F)ccc1Oc1cc(C(F)(F)F)c(Cl)c(F)c1C(=O)Nc1ccc(C(N)=O)cc1 [Example 37A]

- IC50 [3]: < 5 nM
- IC50 [4]: < 5 nM
Structure (SMILES): Cc1nc(F)ccc1Oc1ncc(C(F)(F)F)c(C)c1C(=O)Nc1cccc([S@@](C)(=O)=NC(=O)C(N)C(F)(F)F)c1 (stereo partly drawn) [Example 11D, N-(3-((R)—N-(2-amino-3,3,3-trifluoropropanoyl)-S-methylsulfonimidoyl)phenyl)-2-((6-fluoro-2-methylpyridin-3-yl)oxy)-4-methyl-5-(trifluoromethyl)nicotinamide]

The next lines start with the compound.

Structure (SMILES): Cc1nc(F)ccc1Oc1ncc(C(F)(F)F)c(C)c1C(=O)Nc1cccc([S@@](C)(=O)=NC(=O)CN)c1 [Example 2D, (R)-2-((6-fluoro-2-methylpyridin-3-yl)oxy)-N-(3-(N-glycyl-S-methylsulfonimidoyl)phenyl)-4-methyl-5-(trifluoromethyl)nicotinamide]
- IC50 [3]: < 5 nM
- IC50 [4]: < 5 nM

Structure (SMILES): Cc1nc(F)ccc1Oc1nnc(C(F)(F)F)c(C)c1C(=O)Nc1cccc([S@@](C)(=O)=NC(=O)CN)c1 [Example 24D, (R)-3-((6-fluoro-2-methylpyridin-3-yl)oxy)-N-(3-(N-glycyl-S-methylsulfonimidoyl)phenyl)-5-methyl-6-(trifluoromethyl)pyridazine-4-carboxamide]
- IC50 [3]: 5 to 50 nM
- IC50 [4]: 5 to 50 nM

Structure (SMILES): Cc1nc(F)ccc1Oc1ncc(C(F)(F)F)c(C)c1C(=O)Nc1cccc([S@@](C)(=O)=NC(=O)[C@@H]2CCOC2)c1 [Example 10D, 2-((6-fluoro-2-methylpyridin-3-yl)oxy)-4-methyl-N-(3-((R)—S-methyl-N—((R)-tetrahydrofuran-3-carbonyl)sulfonimidoyl)phenyl)-5-(trifluoromethyl)nicotinamide]
- IC50 [3]: < 5 nM
- IC50 [4]: < 5 nM

Structure (SMILES): CC(=O)N=[S@](C)(=O)c1cccc(NC(=O)c2c(Oc3ccc(F)nc3C)ncc(C(F)(F)F)c2C)c1 [Example 3D, (R)—N-(3-(N-acetyl-S-methylsulfonimidoyl)phenyl)-2-((6-fluoro-2-methylpyridin-3-yl)oxy)-4-methyl-5-(trifluoromethyl)nicotinamide]
- IC50 [3]: < 5 nM
- IC50 [4]: < 5 nM

Structure (SMILES): Cc1nc(F)ccc1Oc1ncc(-c2ccc3c(c2)OCCO3)c(C)c1C(=O)Nc1cccc([S@](C)(=N)=O)c1 [Example 4C, (R)-5-(2,3-dihydrobenzo[b][1,4]dioxin-6-yl)-2-((6-fluoro-2-methylpyridin-3-yl)oxy)-4-methyl-N-(3-(S-methylsulfonimidoyl)phenyl)nicotinamide]
- IC50 [5]: 5 to 50 nM
- IC50 [6]: 5 to 50 nM

Structure (SMILES): Cc1nc(F)ccc1Oc1ncc(C(F)(F)F)c(C)c1C(=O)Nc1ccc(F)c([S@@](C)(=N)=O)c1 (single isomer, unassigned) [Example 14C]
- IC50 [5]: 5 to 50 nM
- IC50 [6]: 5 to 50 nM

Structure (SMILES): COc1c(Oc2cc(C(F)(F)F)nnc2C(=O)Nc2cccc([S+](C)[O-])c2)ccc(F)c1F (stereo not shown) [Example 30C, 4-(3,4-difluoro-2-methoxyphenoxy)-N-(3-(methylsulfinyl)phenyl)-6-(trifluoromethyl)pyridazine-3-carboxamide]
- IC50 [5]: > 200 nM
- IC50 [6]: > 200 nM

Structure (SMILES): Cc1nc(F)ccc1Oc1cc(C(F)(F)F)c(Cl)c(C)c1C(=O)Nc1ccnc([S@@](C)(=N)=O)c1 [Example 60A]
- IC50 [1]: < 5 nM
- IC50 [2]: < 5 nM

Structure (SMILES): C[S@@](=N)(=O)c1cc(NC(=O)c2cc(Cl)c(C(F)(F)F)cc2OCC(F)(F)F)ccn1 [Example 35A]
- IC50 (P1 measurement, resting state block, holding potential −120 mV, first set of compounds, read-out: P1 (IC50, resting state block)): 50 to 100 nM
- IC50 (P2 measurement, inactivated state block, inactivation step −35 mV 10 sec, first set of compounds, read-out: P2 (IC50, inactivated state block)): 50 to 100 nM

Structure (SMILES): COCC(=O)N=[S@](C)(=O)c1cccc(NC(=O)c2c(Oc3ccc(F)nc3C)ncc(C(F)(F)F)c2C)c1 [Example 8D, (R)-2-((6-fluoro-2-methylpyridin-3-yl)oxy)-N-(3-(N-(2-methoxyacetyl)-S-methylsulfonimidoyl)phenyl)-4-methyl-5-(trifluoromethyl)nicotinamide]
- IC50 [3]: < 5 nM
- IC50 [4]: < 5 nM

Structure (SMILES): Cc1nc(F)ccc1Oc1cc(C2CC2)c(C(F)(F)F)cc1C(=O)Nc1cccc([S@@](C)(=N)=O)c1 [Example 59A]
- IC50 [1]: < 5 nM
- IC50 [2]: < 5 nM

Structure (SMILES): Cc1nc(F)ccc1Oc1ccc(C(F)(F)F)c(F)c1C(=O)Nc1cccc([S@](C)(=N)=O)c1 [Example 4A, (R)-2-fluoro-6-((6-fluoro-2-methylpyridin-3-yl)oxy)-N-(3-(S-methylsulfonimidoyl)phenyl)-3-(trifluoromethyl)benzamide]
- IC50 [1]: < 5 nM
- IC50 [2]: < 5 nM

Structure (SMILES): COc1cc(C#N)ccc1Oc1cc(C(F)(F)F)nnc1C(=O)Nc1cccc(S(C)(=O)=O)c1 [Example 38C, 4-(4-cyano-2-methoxyphenoxy)-N-(3-(methylsulfonyl)phenyl)-6-(trifluoromethyl)pyridazine-3-carboxamide]
- IC50 [5]: > 200 nM
- IC50 [6]: 100 to 200 nM

Structure (SMILES): Cc1nc(F)ccc1Oc1cc(C(F)(F)F)c(Cl)c(F)c1C(=O)Nc1ccnc([S@@](C)(=N)=O)c1 [Example 34A]
- IC50 [1]: < 5 nM
- IC50 [2]: < 5 nM

Structure (SMILES): Cc1nc(F)ccc1Oc1cc(C(F)(F)F)cc(F)c1C(=O)Nc1ccnc([S@](C)(=N)=O)c1 [Example 40A]
- IC50 [1]: 5 to 50 nM
- IC50 [2]: 5 to 50 nM

Structure (SMILES): CNCC(=O)N=[S@](C)(=O)c1cccc(NC(=O)c2c(Oc3ccc(F)nc3C)ccc(C(F)(F)F)c2C)c1 [Example 25B]
- IC50 [7]: < 5 nM
- IC50 [8]: < 5 nM

Structure (SMILES): Cc1nc(F)ccc1Oc1ccc(C(F)(F)F)c(C)c1C(=O)Nc1cccc([S@@](C)(=O)=NC(=O)[C@H](C)O)c1 [Example 23B]
- IC50 [7]: < 5 nM
- IC50 [8]: < 5 nM

Structure (SMILES): Cc1nc(F)ccc1Oc1ncc(C(F)(F)F)c(C)c1C(=O)Nc1cccc([S@@](C)(=O)=NC(=O)C2(N)CC2)c1 [Example 5D, (R)—N-(3-(N-(1-aminocyclopropane-1-carbonyl)-S-methylsulfonimidoyl)phenyl)-2-((6-fluoro-2-methylpyridin-3-yl)oxy)-4-methyl-5-(trifluoromethyl)nicotinamide]
- IC50 [3]: < 5 nM
- IC50 [4]: < 5 nM

Structure (SMILES): Cc1nc(F)ccc1Oc1cc(C(F)(F)F)c(Cl)c(C)c1C(=O)NC12CC(C(N)=O)(C1)C2 [Example 53A]
- IC50 [1]: > 200 nM
- IC50 [2]: > 200 nM
